{
  "source": "patent US9844549B2",
  "about": "“2-aminothiazole derivative or salt thereof” (ASTELLAS PHARMA INC., priority 2014, dated 2017)",
  "note": "Where a name gives a salt, the structure may show the parent alone.",
  "data": [
    {"system": "anesthetized rats", "assay": "Effect on pelvic nerve stimulation-induced elevation of intravesical pressure in anesthetized rats", "format": "in vivo", "settings": "Rattus norvegicus; 3 mg/kg intravenous; maximum effect within one hour; AUC, pre-treatment = 100%; SD female rats; read-out: Increase rate of intravesical pressure (% of pre)", "method": "Test Example 3: Effect on Pelvic Nerve Stimulation-Induced Elevation of Intravesical Pressure in Anesthetized Rats\nThe effect of the Example compounds of the present invention in the pelvic nerve electrical stimulation-induced elevation of intravesical pressure using rats as an action of nerve stimulation-dependent bladder contraction in vivo was measured by the following method. That is, SD female rats (Japan SLC, Inc.) were used and its lower abdomen was dissected at the midline under pentobarbital anesthesia (50 mg/kg ip). After ligating and cutting the ureter on both sides, a cannula (PE-50) for measuring the intravesical pressure was inserted into the bladder from the external urethral opening and fixed by a clip. After injecting about 200 μL of saline through the cannula that had been inserted into the bladder, the other side was connected to a pressure transducer to measure the intravesical pressure. Under a stereoscopic microscope observation, the pelvic nerve in the vicinity of the bladder was peeled and an electrode for nerve stimulation (unique Medical) was placed. The abdominal cavity was filled with mineral oil (MP BIOMEDICALS). After placing in a post-operative stabilization period, the pelvic nerve was subjected to electrical stimulation (stimulation voltage: 10 V, stimulation frequency: 8 Hz, pulse width: 0.3 msec, and stimulation time: 10 seconds) to elicit the elevation of intravesical pressure, using an electrical stimulator (Nihon Kohden). By repeating the electrical stimulation at an interval of 2 minutes while adjusting the voltage, the voltage was adjusted to elicit about 50% to 70% elevation of intravesical pressure elicited at 10 V. Thereafter, by repeating the electrical stimulation at an interval of 10 minutes, the increase in the intravesical pressure by electrical stimulation was stabilized three times or more, and the test substance (an administration amount of 3 mg/kg) was then administered from the catheter detained in the vein at a volume of 1 mL/kg, thus measuring an effect of the elevation of the intravesical pressure of the test substance for 1 hour. The test substance was dissolved in water supplemented with 10% DMSO and 10% Cremophor.\nThe response was applied to a personal computer through a PowerLab (registered trademark) and analyzed by LabChart (registered trademark). The AUC of each elevation of the intravesical pressure was calculated, the intravesical pressure elevation rate (% of pre) after the treatment with the test substance was calculated by taking an average value of the values measured three times before the treatment with the test substance as 100%, and the maximum effect during a period within one hour after administration of the compound was considered as the effect of the test substance.", "units": {"response vs control in vivo at 3 mg/kg": "%"}, "values": [
      {"smiles": "C[C@@H]1CCCN1Cc1sc(Nc2nccc(N3CCN(CCC(=O)O)CC3)c2F)nc1-c1ccc(Cl)c(C(F)(F)F)c1", "note": "[Example 2, sodium 3-(4-{2-[(4-[4-chloro-3-(trifluoromethyl)phenyl]-5-{[(2R)-2-methylpyrrolidin-1-yl]methyl}-1,3-thiazol-2-yl)amino]-3-fluoropyridin-4-yl}piperazin-1-yl)propanoate]", "response vs control in vivo at 3 mg/kg": 143},
      {"smiles": "C[C@@H]1CCCN1Cc1sc(Nc2nccc(N3CCN(CCC(=O)O)CC3)c2F)nc1-c1cc(F)cc(C(F)(F)F)c1", "note": "[Example 5, 3-(4-{3-fluoro-2-[(4-[3-fluoro-5-(trifluoromethyl)phenyl]-5-{[(2R)-2-methylpyrrolidin-1-yl]methyl}-1,3-thiazol-2-yl)amino]pyridin-4-yl}piperazin-1-yl)propanoic acid trihydrochloride]", "response vs control in vivo at 3 mg/kg": 146},
      {"smiles": "Cc1nc(Nc2nc(-c3cc(F)cc(C(F)(F)F)c3)c(CN3CCC[C@H]3C)s2)cc(N2CCN(CCC(=O)O)[C@@H](C)C2)n1", "note": "[Example 15]", "response vs control in vivo at 3 mg/kg": 130},
      {"smiles": "Cc1nc(Nc2nc(-c3cc(F)cc(C(F)(F)F)c3)c(CN3CCC[C@H]3C)s2)cc(N2CCN(CC(=O)O)CC2)n1", "note": "[Example 16]", "response vs control in vivo at 3 mg/kg": 111},
      {"smiles": "C[C@@H]1CN(c2cc(Nc3nc(-c4cc(F)cc(C(F)(F)F)c4)c(CN4CCC[C@H]4C)s3)ncn2)CCN1CCC(=O)O", "note": "[Example 20]", "response vs control in vivo at 3 mg/kg": 118},
      {"smiles": "Cc1nc(Nc2nc(-c3cc(F)cc(C(F)(F)F)c3)c(CN3CCC[C@H]3C)s2)cc(N2CCN(CCC(=O)O)[C@H](C)C2)n1", "note": "[Example 21]", "response vs control in vivo at 3 mg/kg": 116},
      {"smiles": "COC1CCN(c2sc(Nc3cc(N4CCN(CCC(=O)O)CC4)nc(C)n3)nc2-c2cc(F)cc(C(F)(F)F)c2)CC1", "note": "[Example 27]", "response vs control in vivo at 3 mg/kg": 123},
      {"smiles": "CN(Cc1sc(Nc2ncnc(N3CCN(CCC(=O)O)CC3)c2F)nc1-c1cc(F)cc(C(F)(F)F)c1)CC1CC1", "note": "[Example 29]", "response vs control in vivo at 3 mg/kg": 145},
      {"smiles": "Cc1nc(Nc2nc(-c3cc(F)cc(C(F)(F)F)c3)c(CN3CCC[C@H]3C)s2)cc(N2CCC(OCC(=O)O)CC2)n1", "note": "[Example 30]", "response vs control in vivo at 3 mg/kg": 124},
      {"smiles": "C[C@@H]1CCCN1Cc1sc(Nc2ncnc(N3CCN(CCC(=O)O)[C@@H](C)C3)c2F)nc1-c1cc(F)cc(C(F)(F)F)c1", "note": "[Example 31]", "response vs control in vivo at 3 mg/kg": 138},
      {"smiles": "CO[C@H]1CCCN(c2sc(Nc3ncnc(N4CCN(CCC(=O)O)CC4)c3F)nc2-c2ccc(Cl)c(C(F)(F)F)c2)C1", "note": "[Example 32]", "response vs control in vivo at 3 mg/kg": 232},
      {"smiles": "C[C@@H]1CCCN1Cc1sc(Nc2ncnc(N3CC[C@H](N(C)CCC(=O)O)C3)c2F)nc1-c1cc(F)cc(C(F)(F)F)c1", "note": "[Example 34]", "response vs control in vivo at 3 mg/kg": 159},
      {"smiles": "C[C@@H]1CCCN1Cc1sc(Nc2ncnc(N3CCN(CCC(=O)O)[C@@H](C)C3)c2F)nc1-c1ccc(Cl)c(C(F)(F)F)c1", "note": "[Example 35]", "response vs control in vivo at 3 mg/kg": 154},
      {"smiles": "C[C@@H]1CC[C@@H](C)N1Cc1sc(Nc2ncnc(N3CCN(CCC(=O)O)CC3)c2F)nc1-c1ccc(Cl)c(C(F)(F)F)c1", "note": "[Example 36]", "response vs control in vivo at 3 mg/kg": 191},
      {"smiles": "CC[C@@H]1CCCN1Cc1sc(Nc2nc(C)nc(N3CCN(CCC(=O)O)CC3)c2F)nc1-c1cc(F)cc(C(F)(F)F)c1", "note": "[Example 38]", "response vs control in vivo at 3 mg/kg": 142},
      {"smiles": "COC1(C(=O)O)CCN(c2ncnc(Nc3nc(-c4cc(F)cc(C(F)(F)F)c4)c(CN4CCC[C@H]4C)s3)c2F)CC1", "note": "[Example 39]", "response vs control in vivo at 3 mg/kg": 123},
      {"smiles": "C[C@@H]1CC[C@@H](C)N1Cc1sc(Nc2ncnc(N3CCN(CCC(=O)O)CC3)c2F)nc1-c1cc(Cl)cc(C(F)(F)F)c1", "note": "[Example 40]", "response vs control in vivo at 3 mg/kg": 212},
      {"smiles": "C[C@@H]1CCCCN1Cc1sc(Nc2ncnc(N3CCN(CCC(=O)O)CC3)c2F)nc1-c1cc(Cl)cc(C(F)(F)F)c1", "note": "[Example 43]", "response vs control in vivo at 3 mg/kg": 177},
      {"smiles": "C[C@@H]1CCCN1Cc1sc(Nc2ncnc(N3CCN(CCC(=O)O)C(CF)C3)c2F)nc1-c1cc(F)cc(C(F)(F)F)c1", "note": "(stereo partly shown) [Example 45]", "response vs control in vivo at 3 mg/kg": 182},
      {"smiles": "C[C@@H]1CCCN1Cc1sc(Nc2ncnc(N3CCN(CCC(=O)O)CC3)c2F)nc1-c1cc(Cl)cc(OC(F)(F)F)c1", "note": "[Example 51]", "response vs control in vivo at 3 mg/kg": 129},
      {"smiles": "C[C@@H]1CCCN1Cc1sc(Nc2ncnc(N3CC[C@H](N(C)CCC(=O)O)C3)c2F)nc1-c1ccc(Cl)c(C(F)(F)F)c1", "note": "[Example 53]", "response vs control in vivo at 3 mg/kg": 145},
      {"smiles": "COC1(C(=O)O)CCN(c2ncnc(Nc3nc(-c4cc(F)cc(C(F)(F)F)c4)c(CN4[C@H](C)CC[C@H]4C)s3)c2F)CC1", "note": "[Example 54]", "response vs control in vivo at 3 mg/kg": 150},
      {"smiles": "COC[C@H]1CN(c2ncnc(Nc3nc(-c4ccc(Cl)c(C(F)(F)F)c4)c(CN4CCC[C@H]4C)s3)c2F)CCN1CCC(=O)O", "note": "[Example 55]", "response vs control in vivo at 3 mg/kg": 189},
      {"smiles": "C[C@@H]1CCCN1Cc1sc(Nc2ncnc(N3CCN(CCC(=O)O)[C@H](CF)C3)c2F)nc1-c1cc(F)cc(C(F)(F)F)c1", "note": "[Example 58]", "response vs control in vivo at 3 mg/kg": 175},
      {"smiles": "C[C@@H]1CCCN1Cc1sc(Nc2ncnc(N3CCN(CCC(=O)O)[C@H](CF)C3)c2F)nc1-c1ccc(Cl)c(C(F)(F)F)c1", "note": "[Example 59]", "response vs control in vivo at 3 mg/kg": 225},
      {"smiles": "CC[C@@H]1CCCN1Cc1sc(Nc2ncnc(N3CCN(CCC(=O)O)CC3)c2F)nc1-c1cc(Cl)cc(C(F)(F)F)c1", "note": "[Example 63]", "response vs control in vivo at 3 mg/kg": 198},
      {"smiles": "C[C@@H]1CC[C@@H](C)N1Cc1sc(Nc2ncnc(N3CC[C@H](N(C)CCC(=O)O)C3)c2F)nc1-c1cc(Cl)cc(C(F)(F)F)c1", "note": "[Example 65]", "response vs control in vivo at 3 mg/kg": 174},
      {"smiles": "C[C@@H]1CCCN1Cc1sc(Nc2ncnc(N3CCC(OCC(=O)O)CC3)c2F)nc1-c1cc(Cl)cc(C(F)(F)F)c1", "note": "[Example 67]", "response vs control in vivo at 3 mg/kg": 169},
      {"smiles": "C[C@@H]1CC[C@@H](C)N1Cc1sc(Nc2ncnc(N3CCC(OCC(=O)O)CC3)c2F)nc1-c1cc(Cl)cc(C(F)(F)F)c1", "note": "[Example 68]", "response vs control in vivo at 3 mg/kg": 172},
      {"smiles": "CC[C@@H]1CCCN1Cc1sc(Nc2ncnc(N3CC[C@H](N(C)CCC(=O)O)C3)c2F)nc1-c1cc(Cl)cc(C(F)(F)F)c1", "note": "[Example 69]", "response vs control in vivo at 3 mg/kg": 150},
      {"smiles": "CC[C@@H]1CCCN1Cc1sc(Nc2ncnc(N3CCN(CCC(=O)O)[C@H](COC)C3)c2F)nc1-c1cc(F)cc(C(F)(F)F)c1", "note": "[Example 70]", "response vs control in vivo at 3 mg/kg": 151},
      {"smiles": "CC[C@@H]1CCCN1Cc1sc(Nc2ncnc(N3CCN(CCC(=O)O)[C@H](COC)C3)c2F)nc1-c1cc(Cl)cc(C(F)(F)F)c1", "note": "[Example 71]", "response vs control in vivo at 3 mg/kg": 197},
      {"smiles": "C[C@@H]1CCCN1Cc1sc(Nc2ncnc(N3CCN(CC(=O)O)CC3)c2F)nc1-c1cc(Cl)cc(C(F)(F)F)c1", "note": "[Example 77]", "response vs control in vivo at 3 mg/kg": 140},
      {"smiles": "C[C@@H]1CCCN1Cc1sc(Nc2ncnc(N3CCN(CCC(=O)O)[C@@H](CO)C3)c2F)nc1-c1cc(F)cc(C(F)(F)F)c1", "note": "[Example 86]", "response vs control in vivo at 3 mg/kg": 164},
      {"smiles": "C[C@@H]1CCCN1Cc1sc(Nc2cc(N3CCN(CCC(=O)O)CC3)ncn2)nc1-c1cc(Cl)cc(C(F)(F)F)c1", "note": "[Example 92]", "response vs control in vivo at 3 mg/kg": 105},
      {"smiles": "COc1c(F)cc(-c2nc(Nc3cc(N4CCN(CCC(=O)O)CC4)ncn3)sc2CN2CCC[C@H]2C)cc1C(F)(F)F", "note": "[Example 94]", "response vs control in vivo at 3 mg/kg": 114},
      {"smiles": "CCN(CC)Cc1sc(Nc2nc(C)nc(N3CCN(CCC(=O)O)CC3)c2F)nc1-c1cc(F)cc(C(F)(F)F)c1", "note": "[Example 97]", "response vs control in vivo at 3 mg/kg": 143},
      {"smiles": "Cc1nc(Nc2nc(-c3cc(F)cc(C(F)(F)F)c3)c(CN(C)C(C)C)s2)c(F)c(N2CCN(CCC(=O)O)CC2)n1", "note": "[Example 98]", "response vs control in vivo at 3 mg/kg": 139},
      {"smiles": "Cc1nc(Nc2nc(-c3cc(F)cc(C(F)(F)F)c3)c(CN3[C@H](C)CC[C@H]3C)s2)cc(N2CCN(CCC(=O)O)CC2)n1", "note": "[Example 99]", "response vs control in vivo at 3 mg/kg": 121},
      {"smiles": "C[C@@H]1CC[C@@H](C)N1Cc1sc(Nc2nccc(N3CCN(CCC(=O)O)CC3)c2F)nc1-c1cc(F)cc(C(F)(F)F)c1", "note": "[Example 100]", "response vs control in vivo at 3 mg/kg": 145}
    ]}
  ]
}
